From patent US11464796B2, “Nicotinamide mononucleotide derivatives and their uses” (Metro International Biotech, LLC, priority 2015, dated 2022)
Where a name gives a salt, the structure may show the parent alone.

Key:
[1] = system: NAD+ levels in skeletal muscle; experiment: NAD+ level in skeletal muscle of mice after a single oral dose (LC/MS), ratio to vehicle control; format: in vivo; conditions: soleus skeletal muscle, single oral gavage in PBS, generally 500 mg/ml (in some cases 250 mg/kg or ethanol/PBS/PEG400), fasted male C57/BL6 mice; for ratio of mean NAD+ concentration in treated mice compared to vehicle control mice, 4 hr skeletal: 4 hr post-dose; for ratio of mean NAD+ concentration in treated mice compared to vehicle control mice, 8 hr skeletal: 8 hr post-dose; for ratio of mean NAD+ concentration in treated mice compared to vehicle control mice, 24 hr skeletal: 24 hr post-dose
Method: (§1) As the compounds disclosed herein can act as prodrugs for NMN, their biological activity was assessed in vivo by measuring the ability to elevate NAD+ levels in liver and skeletal muscle. These tissues were selected for pharmacodynamics studies due to their relevance for the treatment of metabolic diseases. In general, C57/BL6 mice were fasted from 16 hours, then administered a […] oral dose of a disclosed compound in PBS buffer by oral gavage. In some cases, the dose was 250 mg/kg or in an alternate vehicle: ethanol/PBS/PEG400 (10/30/60). After dosing, the mice were sacrificed at pre-set time points after dosing (generally 4, 8 and 24 hours). The liver and skeletal tissues were removed and flash frozen. After some period of frozen storage, tissue homogenates were prepared. The level of NAD+ was quantified using LC/MS methods.
(§2) For bioanalysis, a method of standard addition was used to quantify the NAD. Each homogenate was divided and certain aliquots had known concentrations of exogenous NAD added. The NAD present in the original sample was then calculated by linear regression. Data are presented as a ratio of mean NAD concentration in treated mouse tissues to mean NAD concentration in the vehicle control group tissues at the paired time points.
(§3) Mixtures of compound and PBS, pH 7 were formulated ˜1 hour before dosing and remained stirring until dose completion. Residual formulated test materials were stored at −20±5° C. until discarded. Naïve male C57/BL6 mice at ˜25 g at dose initiation, age as appropriate for weight were assigned to dose groups of six animals per dose. Dosing treatments were administered via a single oral gavage dose (PO) The dose volume for each animal (5 mL/kg) was based on the most recent body measurements taken the morning of dosing. Animals were fasted at least 16 hrs prior to dose, with food returned at least 4 hours post dose.
(§4) Liver and skeletal muscle were collected and analyzed for nicotinamide adenine dinucleotide (NAD) at 0, 4, 8, and 24 hours post-dose. For each mouse, the entire liver was removed, rinsed with saline, blotted dry and frozen at −70° C. to store for NAD concentration analysis. Also, the soleus skeletal muscle was removed from the gastrocnemius, rinsed with saline, blotted dry and frozen at −70° C. to store for NAD concentration analysis.
(§5) • 1. Add 5× (tissue wt.*5)mL 0.1M ZnSO4 into all tubes. • 2. Add 5× (tissue wt*5)mL Methanol into all tubes. • 3. Homogenize each sample until completely liquid. • 4. Vortex each sample. Tissue Extraction Procedure • 1. On ice, aliquot 20 μL of standards, control blanks, and matrix blanks into a 96-well plate. • 2. Aliquot 20 μL of sample into sample wells. • 3. Add 1004, of IS in 80:20 Methanol:water into each well, except blanks add 100 μL of blank 80:20 Methanol:Water. • 4. Cover plate and vortex samples. Centrifuge for 10 minutes at 3300 rpm. • 5. Transfer 80 μL of supernatant into a clean 96-well plate. • 6. Add 80 μL of LC-MS water to all wells. • 7. Cover and vortex. The concentration of NAD+ in the tissues was determined by LC/MS. The conditions are as follows:
(§6) The ratio of mean NAD+ concentration in the liver and skeletal tissues of treated mice compared to vehicle control mice are given in Table 5. The data is given for the 4, 8, and 24 hour time points.

NAD+ levels in liver = experiment: NAD+ level in liver of mice after a single oral dose (LC/MS), ratio to vehicle control; format: in vivo; conditions: single oral gavage in PBS, generally 500 mg/ml (in some cases 250 mg/kg or ethanol/PBS/PEG400), fasted male C57/BL6 mice; for ratio of mean NAD+ concentration in treated mice compared to vehicle control mice, 4 hr liver: 4 hr post-dose; for ratio of mean NAD+ concentration in treated mice compared to vehicle control mice, 8 hr liver: 8 hr post-dose; for ratio of mean NAD+ concentration in treated mice compared to vehicle control mice, 24 hr liver: 24 hr post-dose
Method: as §1, §2, §3, §4, §5, §6

NC(=O)c1ccc[n+]([C@@H]2OC(COP3(=O)OCCC(c4cc(F)cc(F)c4)O3)[C@@H](O)[C@H]2O)c1.O=C([O-])C(F)(F)F (stereo partly drawn) [Compound 2, 1-((2R,3R,4S)-5-(((4-(3,5-Difluorophenyl)-2-oxido-1,3,2-dioxaphosphinan-2-yl)oxy)methyl)-3,4-dihydroxytetrahydrofuran-2-yl)-1λ^4-pyridine-3-carboxamide Trifluoroacetate Salt]
ratio of mean NAD+ concentration in treated mice compared to vehicle control mice, 4 hr skeletal [1]: 0.9 | ratio of mean NAD+ concentration in treated mice compared to vehicle control mice, 8 hr skeletal [1]: 1.0 | ratio of mean NAD+ concentration in treated mice compared to vehicle control mice, 24 hr skeletal [1]: 1.4 | ratio of mean NAD+ concentration in treated mice compared to vehicle control mice, 4 hr liver (NAD+ levels in liver): 2.0 | ratio of mean NAD+ concentration in treated mice compared to vehicle control mice, 8 hr liver (NAD+ levels in liver): 1.6 | ratio of mean NAD+ concentration in treated mice compared to vehicle control mice, 24 hr liver (NAD+ levels in liver): 1.8

CC(C)OC(=O)[C@H](C)NP(=O)(OCC1O[C@@H]([n+]2cccc(C(N)=O)c2)[C@H](O)[C@@H]1O)Oc1ccccc1 (stereo partly drawn) [Compound 4, Isopropyl ((((3S,4R,5R)-5-(3-carbamoyl-1λ4-pyridin-1-yl)-3,4-dihydroxytetrahydrofuran-2-yl)methoxy)(phenoxy)phosphoryl)-L-alaninate Trifluoroacetate Salt]
ratio of mean NAD+ concentration in treated mice compared to vehicle control mice, 4 hr skeletal [1]: 0.9 | ratio of mean NAD+ concentration in treated mice compared to vehicle control mice, 8 hr skeletal [1]: 1.4 | ratio of mean NAD+ concentration in treated mice compared to vehicle control mice, 24 hr skeletal [1]: 1.1 | ratio of mean NAD+ concentration in treated mice compared to vehicle control mice, 4 hr liver (NAD+ levels in liver): 1.0 | ratio of mean NAD+ concentration in treated mice compared to vehicle control mice, 8 hr liver (NAD+ levels in liver): 1.7 | ratio of mean NAD+ concentration in treated mice compared to vehicle control mice, 24 hr liver (NAD+ levels in liver): 1.8

CC(C)(C)C(=O)SCCOP(=O)(NCc1ccccc1)OCC1OC([n+]2cccc(C(N)=O)c2)C(O)C1O (stereo not drawn) [Compound 6, 1-(5-((((Benzylamino)(2-(pivaloylthio)ethoxy)phosphoryl)oxy)methyl)-3,4-dihydroxytetrahydrofuran-2-yl)-3-carbamoylpyridin-1-ium Trifluoroacetate Salt]
ratio of mean NAD+ concentration in treated mice compared to vehicle control mice, 4 hr skeletal [1]: 1.3 | ratio of mean NAD+ concentration in treated mice compared to vehicle control mice, 8 hr skeletal [1]: 1.7 | ratio of mean NAD+ concentration in treated mice compared to vehicle control mice, 24 hr skeletal [1]: 2.6 | ratio of mean NAD+ concentration in treated mice compared to vehicle control mice, 4 hr liver (NAD+ levels in liver): 4.3 | ratio of mean NAD+ concentration in treated mice compared to vehicle control mice, 8 hr liver (NAD+ levels in liver): 6.6 | ratio of mean NAD+ concentration in treated mice compared to vehicle control mice, 24 hr liver (NAD+ levels in liver): 3.5

CC(NP(=O)(OCC1O[C@@H]([n+]2cccc(C(N)=O)c2)[C@H](O)[C@@H]1O)Oc1cccc2ccccc12)C(=O)OCc1ccccc1 (stereo partly drawn) [Compound 8, 1-((2R,3R,4S)-5-(((((1-(Benzyloxy)-1-oxopropan-2-yl)amino)(naphthalen-1-yloxy)phosphoryl)oxy)methyl)-3,4-dihydroxytetrahydrofuran-2-yl)-3-carbamoylpyridin-1-ium Trifluoroacetate Salt]
ratio of mean NAD+ concentration in treated mice compared to vehicle control mice, 4 hr skeletal [1]: 1.0 | ratio of mean NAD+ concentration in treated mice compared to vehicle control mice, 8 hr skeletal [1]: 0.8 | ratio of mean NAD+ concentration in treated mice compared to vehicle control mice, 24 hr skeletal [1]: 0.8 | ratio of mean NAD+ concentration in treated mice compared to vehicle control mice, 4 hr liver (NAD+ levels in liver): 1.2 | ratio of mean NAD+ concentration in treated mice compared to vehicle control mice, 8 hr liver (NAD+ levels in liver): 1.0 | ratio of mean NAD+ concentration in treated mice compared to vehicle control mice, 24 hr liver (NAD+ levels in liver): 0.9

CCC(CC)COC(=O)C(C)NP(=O)(OCC1O[C@@H]([n+]2cccc(C(N)=O)c2)[C@H](O)[C@@H]1O)Oc1ccccc1 (stereo partly drawn) [Compound 9, 2-Ethylbutyl ((((3S,4R,5R)-5-(3-carbamoyl-1λ^4-pyridin-1-yl)-3,4-dihydroxytetrahydrofuran-2-yl)methoxy)(phenoxy)phosphoryl)alaninate Trifluoroacetate Salt]
ratio of mean NAD+ concentration in treated mice compared to vehicle control mice, 4 hr skeletal [1]: 1.88 | ratio of mean NAD+ concentration in treated mice compared to vehicle control mice, 8 hr skeletal [1]: 1.34 | ratio of mean NAD+ concentration in treated mice compared to vehicle control mice, 24 hr skeletal [1]: 0.96 | ratio of mean NAD+ concentration in treated mice compared to vehicle control mice, 4 hr liver (NAD+ levels in liver): 0.8 | ratio of mean NAD+ concentration in treated mice compared to vehicle control mice, 8 hr liver (NAD+ levels in liver): 0.8 | ratio of mean NAD+ concentration in treated mice compared to vehicle control mice, 24 hr liver (NAD+ levels in liver): 1.3

CCOP(=O)(OCC)OCC1OC([n+]2cccc(C(N)=O)c2)C(O)C1O (stereo not drawn) [Compound 19, 3-Carbamoyl-1-(5-(((diethoxyphosphoryl)oxy)methyl)-3,4-dihydroxytetrahydrofuran-2-yl)pyridin-1-ium Chloride]
ratio of mean NAD+ concentration in treated mice compared to vehicle control mice, 4 hr skeletal [1]: 0.8 | ratio of mean NAD+ concentration in treated mice compared to vehicle control mice, 8 hr skeletal [1]: 1.2 | ratio of mean NAD+ concentration in treated mice compared to vehicle control mice, 24 hr skeletal [1]: 0.1 | ratio of mean NAD+ concentration in treated mice compared to vehicle control mice, 4 hr liver (NAD+ levels in liver): 1 | ratio of mean NAD+ concentration in treated mice compared to vehicle control mice, 8 hr liver (NAD+ levels in liver): 1 | ratio of mean NAD+ concentration in treated mice compared to vehicle control mice, 24 hr liver (NAD+ levels in liver): 1

CCCCCCCCCCCCCCCOCCCOP(=O)(OC)OCC1OC([n+]2cccc(C(N)=O)c2)C(O)C1O (stereo not drawn) [Compound 21, 3-Carbamoyl-1-(3,4-dihydroxy-5-(((methoxy(3-(pentadecyloxy)propoxy)phosphoryl)oxy)methyl)tetrahydrofuran-2-yl)pyridin-1-ium Trifluoroacetate Salt]
ratio of mean NAD+ concentration in treated mice compared to vehicle control mice, 4 hr skeletal [1]: 1.3 | ratio of mean NAD+ concentration in treated mice compared to vehicle control mice, 8 hr skeletal [1]: 2.4 | ratio of mean NAD+ concentration in treated mice compared to vehicle control mice, 24 hr skeletal [1]: 3.4 | ratio of mean NAD+ concentration in treated mice compared to vehicle control mice, 4 hr liver (NAD+ levels in liver): 2.2 | ratio of mean NAD+ concentration in treated mice compared to vehicle control mice, 8 hr liver (NAD+ levels in liver): 2.1 | ratio of mean NAD+ concentration in treated mice compared to vehicle control mice, 24 hr liver (NAD+ levels in liver): 1.7
